How the values were obtained:
Format in all cases: in vitro ADME
OAT3 = biological target: T1, OAT3 (Homo sapiens, UniProt Q8TCC7); assay: Inhibition of tracer uptake in OAT3-expressing cells
T1 construct: host or cells: HEK293
T1 sequence (Q8TCC7 1-542): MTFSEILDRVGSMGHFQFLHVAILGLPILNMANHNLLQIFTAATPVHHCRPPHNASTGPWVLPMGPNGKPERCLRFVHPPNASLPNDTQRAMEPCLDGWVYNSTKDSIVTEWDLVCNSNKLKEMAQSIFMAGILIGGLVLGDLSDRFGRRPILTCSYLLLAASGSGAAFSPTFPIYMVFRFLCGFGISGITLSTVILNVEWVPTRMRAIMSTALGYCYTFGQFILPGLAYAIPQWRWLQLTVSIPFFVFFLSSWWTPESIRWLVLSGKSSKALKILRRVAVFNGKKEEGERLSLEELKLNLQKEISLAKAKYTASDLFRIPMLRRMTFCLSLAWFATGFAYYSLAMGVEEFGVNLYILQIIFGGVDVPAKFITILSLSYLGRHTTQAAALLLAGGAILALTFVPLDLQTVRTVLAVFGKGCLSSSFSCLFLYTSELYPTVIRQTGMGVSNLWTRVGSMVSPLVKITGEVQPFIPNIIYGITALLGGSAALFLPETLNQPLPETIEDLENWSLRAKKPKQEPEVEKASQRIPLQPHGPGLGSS
Experimental: For the SLC transporter experiments, Mock Flp-in-293 cells (Flp/mock), OAT1-expressing Flp-in-293 cells (Flp/OAT1), mock HEK293 cells (HEK/mock), and OATP1B3-expressing HEK293 cells (HEK/OATP1B3) were obtained from Kanazawa University (Ishikawa, Japan). Briefly, Flp-in-293 and HEK293 cells were transfected with the appropriate plasmid DNA and selected using antibiotics (hygromycin or G-418). All cell lines were cultured in DMEM (Life Technologies Japan) supplemented with 10% (v/v) fetal bovine serum (American Type Culture Collection) and antibiotics (100 U/mL penicillin and 100 μg/mL streptomycin (Life Technologies Japan) for mock cells, 0.2 mg/mL hygromycin for Flp/OAT1 cells, and 1.2 mg/mL G-418 (Roche Diagnostics K.K., Tokyo, Japan) for HEK/OATP1B3 cells) at 37 °C under an atmosphere containing 5% CO2. […]
The experiments were performed as described previously, with minor modifications. […] The cells were lysed in 0.3 mL of 0.1N NaOH at room temperature, after which the radioactivity of each aliquot was measured as described above. The protein concentration of the cell lysate was determined with a VersaMax microplate reader (Molecular Devices Japan K.K., Osaka, Japan) or SpectraMax i3x (Molecular Devices Japan K.K.; only for OATP1B1) using a BCA Protein Assay Kit (Thermo Fisher Scientific, Kanagawa, Japan). Tracer uptake was expressed as pmol/mg protein. […]

human P-gp = biological target: T2, human P-gp (Homo sapiens, UniProt P08183); assay: Inhibition of tracer uptake in P-gp-expressing vesicles; conditions: tracer [3H]digoxin 1 µM
T2 construct: purchased GenoMembrane Co., Ltd. (Kanagawa, Japan); host or cells: Sf9
Experimental: For ABC transporters, experimental kits containing Sf9-derived vesicles with high expression levels of human P-gp, MRP4, BCRP, and each ABC transporter (including buffer, ATP/AMP solution, and glutathione) were purchased from GenoMembrane Co., Ltd. (Kanagawa, Japan).
Vesicular transport assays were carried out according to the manufacturer’s protocol. […] The reaction was started by suspending 50 μg of vesicles (10 μL) in 40 μL of the reaction buffer. After incubation for an appropriate period of time, the reaction was stopped by the addition of ice-cold stop buffer (40 mM MOPS-Tris and 70 mM KCl; pH 7.0), after which the solution was filtered through a 0.45 μm HA filter (Millipore Corp., Billerica, MA, USA) using suction, and was washed twice in 5 mL of ice-cold stop buffer. The radioactivity of the filter was measured with a Tri-Carb 2910TR liquid scintillation counter (PerkinElmer) using Ultima Gold (PerkinElmer). The amount of tracer uptake was normalized to the membrane protein amount described in the product information sheets.

OCT2 = biological target: T3, OCT2 (Homo sapiens, UniProt O15244); assay: [14C]fluciclovine uptake by OCT2-expressing cells; conditions: OCT2 cells vs mock cells
T3 construct: host or cells: HEK293
T3 sequence (O15244 1-555): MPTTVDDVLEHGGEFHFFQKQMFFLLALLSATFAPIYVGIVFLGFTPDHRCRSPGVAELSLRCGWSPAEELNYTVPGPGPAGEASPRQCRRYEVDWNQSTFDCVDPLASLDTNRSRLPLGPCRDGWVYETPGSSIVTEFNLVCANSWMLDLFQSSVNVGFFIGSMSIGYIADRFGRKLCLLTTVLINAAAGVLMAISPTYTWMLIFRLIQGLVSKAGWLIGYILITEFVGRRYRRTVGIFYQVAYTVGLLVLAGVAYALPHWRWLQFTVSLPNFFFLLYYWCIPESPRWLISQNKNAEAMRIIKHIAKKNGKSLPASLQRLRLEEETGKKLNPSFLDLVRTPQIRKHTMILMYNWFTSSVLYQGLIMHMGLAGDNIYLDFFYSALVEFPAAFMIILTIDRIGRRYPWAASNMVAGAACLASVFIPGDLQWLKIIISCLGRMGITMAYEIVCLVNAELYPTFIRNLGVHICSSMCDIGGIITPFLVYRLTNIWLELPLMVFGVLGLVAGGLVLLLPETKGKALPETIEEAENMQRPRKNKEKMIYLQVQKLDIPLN

T2 sequence (P08183 whole entry): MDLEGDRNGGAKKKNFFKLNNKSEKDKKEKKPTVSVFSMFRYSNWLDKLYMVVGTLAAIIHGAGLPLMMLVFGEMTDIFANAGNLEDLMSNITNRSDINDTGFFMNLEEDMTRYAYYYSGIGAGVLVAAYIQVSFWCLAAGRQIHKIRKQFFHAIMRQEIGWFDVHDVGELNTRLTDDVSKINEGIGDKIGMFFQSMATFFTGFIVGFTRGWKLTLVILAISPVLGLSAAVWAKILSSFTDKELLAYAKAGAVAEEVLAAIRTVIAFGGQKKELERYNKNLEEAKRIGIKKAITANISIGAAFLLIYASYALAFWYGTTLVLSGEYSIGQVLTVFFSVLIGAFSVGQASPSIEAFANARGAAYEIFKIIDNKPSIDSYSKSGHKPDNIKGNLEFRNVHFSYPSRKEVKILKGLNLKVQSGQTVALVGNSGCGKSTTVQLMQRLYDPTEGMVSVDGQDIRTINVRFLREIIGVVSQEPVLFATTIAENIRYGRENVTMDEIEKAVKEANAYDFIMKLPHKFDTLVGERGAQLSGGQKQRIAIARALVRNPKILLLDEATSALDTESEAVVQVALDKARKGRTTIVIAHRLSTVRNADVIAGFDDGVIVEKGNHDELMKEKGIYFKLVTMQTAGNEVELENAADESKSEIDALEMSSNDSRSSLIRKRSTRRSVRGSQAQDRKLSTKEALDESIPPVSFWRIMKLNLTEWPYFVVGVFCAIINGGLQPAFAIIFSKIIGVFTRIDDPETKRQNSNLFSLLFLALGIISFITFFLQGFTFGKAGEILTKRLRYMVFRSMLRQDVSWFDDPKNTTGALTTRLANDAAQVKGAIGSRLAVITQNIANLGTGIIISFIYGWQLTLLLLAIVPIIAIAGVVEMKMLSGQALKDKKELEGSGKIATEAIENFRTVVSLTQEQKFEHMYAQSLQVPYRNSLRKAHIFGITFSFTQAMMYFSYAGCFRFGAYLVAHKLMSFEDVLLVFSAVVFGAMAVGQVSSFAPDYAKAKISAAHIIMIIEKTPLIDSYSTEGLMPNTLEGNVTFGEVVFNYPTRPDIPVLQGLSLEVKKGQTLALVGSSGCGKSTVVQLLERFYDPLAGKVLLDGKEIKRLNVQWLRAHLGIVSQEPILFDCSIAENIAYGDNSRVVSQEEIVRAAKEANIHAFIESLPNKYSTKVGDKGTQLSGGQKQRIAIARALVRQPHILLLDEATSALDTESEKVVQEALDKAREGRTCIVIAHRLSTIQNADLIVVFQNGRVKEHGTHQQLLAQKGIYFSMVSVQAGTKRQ

| SMILES | inhibition by fluciclovine at millimolar concentrations observed (OAT3; OAT3, tracer [3H]ES 1 µM, 100 µM–10 mM fluciclovine) | OAT3-mediated ES uptake (OAT3; in the presence of 10 mM fluciclovine) | IC50 (human P-gp) [µM] | drug transporter-mediated uptake (OCT2) |
| --- | --- | --- | --- | --- |
| N[C@]1(C(=O)O)C[C@@H](F)C1 [fluciclovine] | not | increased | 2950 ± 2560 |  |
| N[14C]1(C(=O)O)CC(F)C1 (stereo not drawn) [[^14C]fluciclovine, trans-1-amino-3-fluoro[1-^14C]cyclobutanecarboxylic acid] |  |  |  | negligible |
